We go through one molecule from patent US20070269492A1, “New product and use and manufacture thereof” (priority 2006, published 2007).

On data set [1], the source says: Absorption of nicotine from the oral cavity to the systemic circulation is dependent on the pH of the saliva, pH of the blood plasma and the pKa of nicotine, which is about 7.8. Assuming a pH of the saliva of 6.8, only about 10% of the nicotine will be in the free base form. Thus, in order to promote absorption of nicotine in a free base form, which is the form predominantly absorbed through the mucosa, the pH of the saliva must preferably be increased to at least pH 7 and to at most pH 10, more preferably to at least pH 8 and at most pH 9.5. At a pH of 8.8 about 90% of the nicotine will then be in the free base form.

For data set [2] the following is noted: cited from earlier work.

Where two headings read alike, the source gives them in different places.

`CN1CCCC1c1cccnc1` (stereo not drawn) [nicotine, 3-(1-methyl-2-pyrrolidinyl)-pyridine]: the results for the “nicotine in the free base form” value in data set [1] (pH 8.8) and in data set [1] (saliva pH 6.8) were “about 90%” and “about 10%”, respectively. Further, the “single dose able to kill an adult” value in data set [2] was “Approximately 40 milligrams”.
